{"source": "the NIST ThermoML archive (doi:10.1021/je2011055)", "conditions": "Liquid, Closed cell (Static) method", "note": "Numbers after ± are expanded uncertainties."}
{"smiles": "CC(C)C", "note": "[2-methylpropane]", "values": [{"measurement": "vapor or sublimation pressure", "setting": "258.15 K", "result": "88.9 ± 1", "unit": "kPa"}, {"measurement": "vapor or sublimation pressure", "setting": "268.15 K", "result": "130.8 ± 1.1", "unit": "kPa"}, {"measurement": "vapor or sublimation pressure", "setting": "278.15 K", "result": "186.7 ± 1.1", "unit": "kPa"}, {"measurement": "vapor or sublimation pressure", "setting": "288.15 K", "result": "258.7 ± 1.3", "unit": "kPa"}]}
{"smiles": "F/C=C/C(F)(F)F", "note": "[trans-1,3,3,3-tetrafluoropropene]", "values": [{"measurement": "vapor or sublimation pressure", "setting": "258.15 K", "result": "119.3 ± 1.1", "unit": "kPa"}, {"measurement": "vapor or sublimation pressure", "setting": "268.15 K", "result": "178.4 ± 1.1", "unit": "kPa"}, {"measurement": "vapor or sublimation pressure", "setting": "278.15 K", "result": "258.1 ± 1.3", "unit": "kPa"}, {"measurement": "vapor or sublimation pressure", "setting": "288.15 K", "result": "362.8 ± 1.5", "unit": "kPa"}]}
